{"source": "patent US5344926A", "about": "“Process for producing staurosporine derivatives” (Kyowa Hakko Kogyo Co., Ltd., priority 1992, dated 1994)", "key": {"Protein kinase C": {"system": "Protein kinase C", "assay": "Protein Kinase C Inhibitory Activity (crude enzyme partially purified from rat brain)", "conditions": "for selective inhibitory activity on protein kinase C, compared with UCN-01: PKC vs PKA; for IC50 PKC: pH 7.5, 30° C., 3 minutes; for PKA/PKC: ratio of IC50 PKA to IC50 PKC", "method": "(1) Protein Kinase C Inhibitory Activity\nProtein kinase C inhibitory activity (PKC) was measured by the method of Kikkawa, et al. (Journal of Biological Chemistry, 257, 13341 (1982)].\nThat is, 10 μl of a test solution containing UCN-01, Compound No. 1-α or Compound No. 1-β was added to 250 μl of a solution containing 2.5 μmoles of magnesium acetate, 50 μg of Histone Type IIS (manufactured by Sigma Co., Ltd.), 20 μg of phosphatidyl serine, 0.8 μg of diolein, 25 nmoles of CaCl2, 5 μg of crude enzyme (partically purified from rat brain according to the method of Kikkawa, et al.) and 5 μmoles of Tris-hydrochloride buffer (pH 7.5), followed by incubation at 30° C. for 3 minutes. Then, phosphorylation was initiated by addition of 1.25 nmoles of [γ-^32 p]ATP(5 to 10×10^3 cpm/nmole), followed by incubation at 30° C. for 3 minutes. The reaction was stopped by adding 25% trichloroacetic acid (TCA), and the reaction solution was filtered through a cellulose acetate membrane (pore size of 0.45 μm) (manufactured by Toyo Filter Paper Co., Ltd.). After the membrane was washed four times with 5% TCA, radioactivity remaining on the membrane was measured. As a control, the same procedure as above was repeated without addition of the test solution and radioactivity was likewise measured. A concentration of the test solution showing 50% inhibition as compared with the control was expressed as IC50."}, "Protein kinase A": {"molecular_target": "T1, Protein kinase A (Bos taurus, UniProt P00517)", "T1 construct": "partially purified from calf heart; from tissue; host or cells: calf heart, crude enzyme, partially purified", "assay": "Protein Kinase A Inhibitory Activity (crude enzyme partially purified from calf heart)", "type": "biochemical", "conditions": "pH 6.8", "method": "(2) Protein Kinase A Inhibitory Activity\nProtein kinase A inhibitory activity (PKA) was measured according to the method of Kuo, et al. [Biochemistry, 64, 1349 (1969)].\nSubsequent procedures were conducted in a manner similar to the case of measuring protein kinase C inhibitory activity described above to determine IC50."}, "platelets": {"system": "platelets", "assay": "Platelet increasing activity in Balb/c mice", "type": "in vivo", "conditions": "20 mg/kg i.p. once a day for 5 days; for Number of platelets, individual mouse: 20 mg/kg; for Number of platelets (mean): mean of six mice", "method": "Platelet increasing activity of Compound (I-1) was examined. Compound No. 1-α obtained in Example 13 was suspended in 0.3% carboxymethylcellulose aqueous solution containing 5% Tween 80. 0.2 ml of the suspension was intraperitoneally administered to six Balb/c mice (male, aged 7 weeks) at a dosage of 20 mg/kg once a day for 5 days. The blood (20 μl) was collected from the ophthalmic […] at the times, just before the test compound administration (Day 0), the 7th day (Day 7), the 14th day (Day 14), the 17th day (Day 17) and the 28th day (Day 28). The number of platelets was counted by a microcellcounter."}, "HeLa S3 cells": {"system": "HeLa S3 cells", "assay": "Growth Inhibition Test on HeLa S3 Cells", "type": "cell-based", "conditions": "Homo sapiens, 1 h exposure, then 72 h incubation, Neutral Red, read-out: IC50 (cell growth inhibition)", "method": "Growth Inhibition Test on HeLa S3 Cells\nHaLa S3 cells were suspended in an MEM medium containing 10% fetal calf serum and 2 mM glutamine at a concentration of 3×10^4 cells/ml, and 0.1 ml of the cell suspension was put into each well of a 96-well microtiter plate.\nAfter culturing at 37° C. overnight in a carbon dioxide gas incubator, 0.05 ml of a test sample appropriately diluted with the medium was added to each well. The cells were further cultured for one hour in the carbon dioxide gas incubator and the culture supernatant was removed. The residue was washed once with a phosphate buffer saline [PBS(-)] and 0.1 ml of a fresh medium was added to each well, and the cells were further incubated at 37° C. for 72 hours in the carbon dioxide gas incubator. After removal of the supernatant, 0.1 ml of culture medium containing 0.02% Neutral Red was added to each well, and the cells were further incubated at 37° C. for one hour in the carbon dioxide gas incubator to stain the cells. After removal of the culture supernatant, each well was washed once with a physiological saline, and the dye was extracted with 0.001N HCl/30% methanol. Absorbance of the extract at 550 nm was measured with a microplate reader. The cell growth inhibition percentage was calculated according to the following formula from the absorbance of the extract of the cells treated with the test compound in various concentrations and that of intact cells. [formula]\nFrom the cell growth inhibition percentage thus obtained, the concentration of the test compound which inhibits cell growth by 50% (IC50) was determined."}, "[1]": {"conditions": "Day 0 (just before administration)"}}, "note": "Values joined by “and” are separate entries in the source; they are usually repeats but may differ in a detail not shown here. Equal values may be shown once."}
{"smiles": "COC1C(N(C)CCO)CC2OC1(C)n1c3ccccc3c3c4c(c5c6ccccc6n2c5c31)C(=O)NC4O", "note": "(stereo not drawn) [Compound No. 1-α]", "values": [{"measurement": "selective inhibitory activity on protein kinase C, compared with UCN-01", "setting": "Protein kinase C", "value": "have a selective inhibitory activity on protein kinase C, compared with UCN-01"}, {"measurement": "IC50 PKC", "setting": "Protein kinase C", "value": 2.2, "unit": "ng/mL"}, {"measurement": "PKA/PKC", "setting": "Protein kinase C", "value": 118}, {"measurement": "IC50", "setting": "Protein kinase A", "value": 494, "unit": "nM"}, {"measurement": "Number of platelets, relative value", "setting": "platelets; Day 0 (= 100)", "value": 100, "unit": "%"}, {"measurement": "Number of platelets, individual mouse", "setting": "platelets; [1]", "value": "81.8 and 89.6 and 75.0 and 89.7 and 97.0 and 86.5"}, {"measurement": "Number of platelets (mean)", "setting": "platelets; [1]", "value": 86.6}, {"measurement": "Number of platelets, relative value", "setting": "platelets; Day 7, relative to Day 0", "value": 156.4, "unit": "%"}, {"measurement": "Number of platelets, individual mouse", "setting": "platelets; Day 7", "value": "128.3 and 119.2 and 130.1 and 153.8 and 141.0 and 140.1"}, {"measurement": "Number of platelets (mean)", "setting": "platelets; Day 7", "value": 135.4}, {"measurement": "Number of platelets, relative value", "setting": "platelets; Day 14, relative to Day 0", "value": 139.8, "unit": "%"}, {"measurement": "Number of platelets, individual mouse", "setting": "platelets; Day 14", "value": "113.7 and 122.5 and 118.8 and 145.9 and 121.2 and 101.7"}, {"measurement": "Number of platelets (mean)", "setting": "platelets; Day 14", "value": 121.1}, {"measurement": "Number of platelets, relative value", "setting": "platelets; Day 17, relative to Day 0", "value": 146.7, "unit": "%"}, {"measurement": "Number of platelets, individual mouse", "setting": "platelets; Day 17", "value": "115.0 and 113.6 and 111.9 and 159.1 and 137.1 and 125.5"}, {"measurement": "Number of platelets (mean)", "setting": "platelets; Day 17", "value": 127.0}, {"measurement": "Number of platelets, relative value", "setting": "platelets; Day 28, relative to Day 0", "value": 135.1, "unit": "%"}, {"measurement": "Number of platelets, individual mouse", "setting": "platelets; Day 28", "value": "117.3 and 123.5 and 119.0 and 113.7 and 105.8 and 125.3"}, {"measurement": "Number of platelets (mean)", "setting": "platelets; Day 28", "value": 117.4}]}
{"smiles": "COC1C(N(C)CCO)CC2OC1(C)n1c3ccccc3c3c4c(c5c6ccccc6n2c5c31)C(=O)NC4O", "note": "(stereo not drawn) [Compound No. 1-β]", "values": [{"measurement": "selective inhibitory activity on protein kinase C, compared with UCN-01", "setting": "Protein kinase C", "value": "have a selective inhibitory activity on protein kinase C, compared with UCN-01"}, {"measurement": "IC50 PKC", "setting": "Protein kinase C", "value": 19, "unit": "ng/mL"}, {"measurement": "PKA/PKC", "setting": "Protein kinase C", "value": 20}, {"measurement": "IC50", "setting": "Protein kinase A", "value": 703, "unit": "nM"}]}
{"smiles": "COC1C(N(C)CCO)CC2OC1(C)n1c3ccccc3c3c4c(c5c6ccccc6n2c5c31)C(=O)NC4O", "note": "(stereo not drawn) [Compound No. 1]", "values": [{"measurement": "IC50", "setting": "HeLa S3 cells", "value": 2200, "unit": "nM"}]}
{"smiles": "COC1C(N(C)CC(O)CO)CC2OC1(C)n1c3ccccc3c3c4c(c5c6ccccc6n2c5c31)C(=O)NC4O", "note": "(stereo not drawn) [Compound No. 2]", "values": [{"measurement": "IC50", "setting": "HeLa S3 cells", "value": 1900, "unit": "nM"}]}
{"smiles": "COC1C(N(C)CCCC(=O)O)CC2OC1(C)n1c3ccccc3c3c4c(c5c6ccccc6n2c5c31)C(=O)NC4O", "note": "(stereo not drawn) [Compound No. 3]", "values": [{"measurement": "IC50", "setting": "HeLa S3 cells", "value": 4600, "unit": "nM"}]}
{"smiles": "COC1C(N(C)C(=O)CN2CCOCC2)CC2OC1(C)n1c3ccccc3c3c4c(c5c6ccccc6n2c5c31)C(=O)NC4O", "note": "(stereo not drawn) [Compound No. 6]", "values": [{"measurement": "IC50", "setting": "HeLa S3 cells", "value": 2200, "unit": "nM"}]}
{"smiles": "COC1C(N(C)C(=O)CN(C)C)CC2OC1(C)n1c3ccccc3c3c4c(c5c6ccccc6n2c5c31)C(=O)NC4O", "note": "(stereo not drawn) [Compound No. 7]", "values": [{"measurement": "IC50", "setting": "HeLa S3 cells", "value": 1500, "unit": "nM"}]}
{"smiles": "CN[C@@H]1C[C@H]2O[C@@](C)([C@@H]1OC)n1c3ccccc3c3c4c(c5c6ccccc6n2c5c31)C(=O)N[C@@H]4O", "note": "[UCN-01, reference compound]", "values": [{"measurement": "IC50 PKC", "setting": "Protein kinase C", "value": 2, "unit": "ng/mL"}, {"measurement": "PKA/PKC", "setting": "Protein kinase C", "value": 10}]}
